Results reported in article PMC11355573, “A New Renieramycin T Right-Half Analog as a Small Molecule Degrader of STAT3” (Marine Drugs, 2024).

How the values were obtained:
Type in all cases: cell-based, human
[1] = tested on: ZO1, Slug, Snail, N-cadherin, Vimentin mRNA in H460 cells; assay: mRNA of EMT markers by Real-time qPCR; settings: H460, 1 μM and 2.5 µM
Procedure: Therefore, the effect of DH_31 on targeting, the DNA-binding domain of STAT3, may represent an impact on downstream targets at the transcriptional level (Figure 8A). The expression levels of ZO1, Slug, Snail, N-cadherin, and Vimentin were analyzed using Real-time qPCR.
Quantitative Real-time PCR was performed to determine the effect of DH_31 on mRNA levels of STAT3 and EMT-related genes. H460 cells (4.0 × 10^5 cells per well) were seeded in 6-well plates. Following overnight incubation, the cells were treated with different concentrations of DH_31 (0–2.5 μM)) for 8 h at 37 °C. After treatment, total RNA was isolated using the RNeasy kit (Qiagen, Germany) and subsequently subjected to cDNA synthesis using qScript cDNA Supermix (Quanta bio, Beverly, MA, USA), following the manufacturers’ protocols. Real-time qPCR was performed using Luna Universal qPCR Master Mix (NEB, Ipswich, MA, USA) and the CFX 96 Real-time PCR system (Bio-Rad, Hercules, CA, USA). The expression of each cDNA was normalized to that of β-actin, and the comparative Ct method was used to obtain relative expression levels. The primers used for Real-time PCR are shown in the in the Supporting Information, Table S1. The list of primers.

[2] = tested on: NSCLC cells (H292 and H460); assay: Hoechst 33342/PI staining, percentage of dead cells in NSCLC; settings: 10 μM, 24 h
Procedure: Apoptosis is a crucial mechanism of cell death induced by anticancer drugs. We further analyzed the apoptosis induction effect of the potent small molecules, namely DH_28, DH_30, and DH_31. Nuclear morphology detected by the staining with nucleus-specific fluorescence dye Hoechst 33342 and cell-impermeable PI for necrotic detection was performed. Morphologic changes by means of condensed and/or fragmented nuclei were observed after 24 h of treatment (Figure 2D). […] Therefore, DH_31 was selected for further experiments.
Figure 2 The effect of RT right-half analogs on cytotoxicity in NSCLC and human normal lung epithelial (BEAS-2B) cell lines and apoptotic cell death in NSCLC cells. (A) NSCLC H292 and H460 cells were treated with derivatives of RT right-half analogs for 24 h and analyzed using MTT assay to assess cytotoxicity. (B) IC50 values for H292 and H460 cell lines were calculated. (C) BEAS-2B cells were treated with DH_28, DH_30, DH_31, and TM-(−)-18 for 24 h. The cytotoxic effects were evaluated using an MTT assay, and the IC50 values for BEAS-2B cells were determined. (D) H292 and H460 cells were seeded and treated with 0–10 μM of DH_28, DH_30, and DH_31 for 24 h. Hoechst 33342 and PI were used to stain the cell nuclei. Images were obtained under a fluorescence microscope. (E) The percentages of cell death were calculated based on the stained images in H292 and H460 cells. […]

detached H460 cells = assay: Anoikis assay (viability under detachment, MTT); settings: H460, 1 and 2.5 μM, at 12 h (p < 0.01) and 24 h (p < 0.001)
Procedure: Anoikis, a detachment-induced apoptosis, is a mechanism to prevent metastasis, so resistance to anoikis enhances the potential of metastasis. To confirm that DH_31 induces anoikis, the detached H460 cells were treated with 1 and 2.5 μM of DH_31 for 6, 12, and 24 h.
MTT assay was conducted to ascertain cell viability after treatment with DH-31 under detachment conditions. H292 and H460 cells (5.0 × 10^3 cells per well) were seeded in ultra-low attachment 96-well plates and treated with different concentrations of DH_31 (0–2.5 μM) at 37 °C. At 0, 6, 12, and 24 h of incubation, the cell suspensions were transferred onto regular cell culture plates in growth medium to facilitate attachment. After 3 h, images of cells that survived anoikis and recovered their adherent growth ability were captured with a 10 × objective using an inverted microscope (Olympus IX51 with DP70; OlympusbAmerica Inc., Center valley, PA, USA). Then, the medium in each well was removed and replaced with 100 µL of MTT solution. Cell viability was assessed using MTT assay, following the manufacturers’ protocols. Anoikis resistance was calculated as a percentage compared with the control.

## COc1c(C)cc2c(c1O)[C@@H]1CN(Cc3ccc4ccccc4c3)[C@@H](C#N)[C@H](C2)N1C [DH_31, (1R,4R,5S)-10-hydroxy-9-methoxy-8,11-dimethyl-3-(naphthalen-2-ylmethyl)-1,2,3,4,5,6-hexahydro-1,5-epiminobenzo[d]azocine-4-carbonitrile]
[1]; 8 h (p < 0.01)
  ZO1 mRNA expression: significant increase
[1]; 8 h (p < 0.05)
  N-cadherin mRNA expression: significant reduction
  Slug mRNA expression: significant reduction
  Snail mRNA expression: significant reduction
  Vimentin mRNA expression: significant reduction
[2]
  dead cells in NSCLC: 34–66%
Detached H460 cells
  cell viability of detached cells (anoikis): significant decrease
